The test system of experiment [1] is Murine T cell lymphoma EL-4 cells. Nature of the experiment: Pharmacological Test 4: APC therapy of EL-4-bearing mice, survival period. In kind it is in vivo, mouse. As for the experimental part: To study an anti-tumor effect of murine spleen-derived APCs activated with KRN7000 on mice implanted with tumor cells, experiments were performed with BDF1 mice (6-week-old, female). All experiments included 6 mice per group. Murine T cell lymphoma EL-4 cells were injected intravenously into each mouse at a level of 1×10^5 cells/mouse (injection day: day 0). On day 1, the vehicle-pretreated APCs (V-APC) and the KRN7000-pretreated (100 ng/mL) APCs (KRN-APC) both prepared in the same manner as in Pharmacological Test 3 were each injected intravenously into the mice at a level of 5×10^5 cells/mouse. As a positive control, KRN7000 was injected intravenously into the mice at a dose of 100 μg/kg on days 1, 5 and 9. Each mouse was checked for a sign of life daily to determine its survival period.

Experiment [2] relates to dendritic cell-rich APCs prepared from the murine spleen. The following applies: Koezuka 1995; Yamaguchi 1996; cited from earlier work.
Experiment [3] concerns Murine melanoma B16 cells. Nature of the experiment: Pharmacological Test 8: APC therapy of mice with subcutaneous B16 melanoma, tumor volume. The following applies: KRN7000 100 μg/kg i.v. on days 1, 5 and 9 (positive control). In kind it is in vivo, mouse. How it is done:
The experiment was performed with BDF1 mice (6-week-old, female), which were divided into groups consisting of 6 mice. Murine melanoma B16 cells were implanted subcutaneously into each mouse at a level of 1.5×10^6 cells/mouse (implantation day: day 0). Several types of pretreated APCs were prepared in the same manner as in Pharmacological Test 3, in which APCs were pretreated with a vehicle (DMSO, final concentration: 0.1%) (V-APC), with both the vehicle (DMSO, final concentration: 0.1%) and a B16-tumor cell lysate (V-T-APC), with KRN7000 (final concentration: 100 ng/mL) (KRN-APC), and with both KRN7000 (final concentration: 100 ng/mL) and a B16-tumor cell lysate (KRN-T-APC), respectively. Each of the pretreated APCs was injected intravenously into the mice at a dose of 5×10^5 cells/mouse on day 1. As a positive control, KRN7000 was injected intravenously into the mice at a dose of 100 μg/kg on days 1, 5 and 9. The volume of the subcutaneous tumor in each mouse was measured.

The test system of experiment [4] is Human Peripheral Blood-derived APC. Description: Pharmacological Test 1: autologous MLR assay with human peripheral blood-derived APCs pretreated with KRN7000. The experiment is classed as cell-based. The following applies: KRN7000 100 ng/mL, 40 hours; conclusion from autologous MLR. As for the experimental part: This experiment was designed to study an effect of KRN7000 (Compound No.14, a representative glycoside compound of the invention) on APCs prepared from human peripheral blood. The APCs (mainly comprised of dendritic cells) derived from human peripheral blood were prepared essentially according to the method of Hsu et al. (supra). Briefly, human peripheral blood was layered over Ficoll-Paque and centrifuged at 2,000 rpm for 35 minutes to give a mononuclear cell fraction. A portion of the mononuclear cell fraction was suspended into PBS (Ca^++, Mg^++ free) supplemented with 5% of inactivated human AB serum. The resultant solution was layered over 50% Percol, and then centrifuged at 3,000 rpm for 20 minutes to give a high-density fraction. The high-density fraction was panned using a human γ-globulin-coated dish to remove FcR^+ cells therefrom (i.e., a monocyte-removed fraction). The resultant fraction was reacted with anti-CD3 monoclonal antibodies, anti-CD21 monoclonal antibodies and anti-CD56 monoclonal antibodies. […]
The APCs (5×10^4 cells/well) and the responder cells (1×10^5 cells/well) both prepared in the above steps were added to wells of a 96-well flat-bottomed plate, and then subjected to autologous MLR assay. […] The amount of the ^3H-TdR taken up into the cells was determined using a liquid scintillation counter. […]

Experiment [5] deals with Human Umbilibal Cord Blood-derived APC. Nature of the experiment: Pharmacological Test 12: autologous MLR assay with human umbilical cord blood monocyte-derived APCs. The following applies: KRN7000 100 ng/mL. In kind it is cell-based. As for the experimental part: A monocyte fraction was prepared from human umbilical cord blood mononuclear cells by Percol density-gradient centrifugation. The monocyte fraction was cultured in the presence of GM-CSF (50 ng/mL) and IL-4 (100 ng/mL), and simultaneously either a vehicle (V; 0.1% DMSO) or KRN7000 (KRN; 100 ng/mL) was added thereto. After culturing for 3 days, the cells were recovered and washed with the medium 3 times to give V-APC-GM and KRN-APC-GM, respectively, which were provided for use as APCs. As response cells, human umbilical cord blood-derived FcR^− cells were used for autologous MLR assay.

Experiment [6] has as its system Murine colon adenocarcinoma Colon26 cells. Nature of the experiment: Pharmacological Test 6: APC therapy of mice implanted intrasplenically with Colon26 cells, liver weight. The experiment is classed as in vivo, mouse. How it is done:
The experiment was performed to study an anti-tumor effect of murine bone marrow-derived APCs activated with KRN7000 on mice implanted with tumor cells. All experiments were performed with CDF1 mice (6-week-old, female), which were divided into groups consisting of 5 mice. Murine colon adenocarcinoma Colon26 cells were implanted into each mouse intrasplenically at a level of 2×10^6 cells/mouse (inoculation day: day 0). On day 1, the vehicle-pretreated APCs (V-APC) and the KRN7000-pretreated (100 ng/mL) APCs (KRN-APC) both prepared in the same manner as in Pharmacological Test 5 were individually injected intravenously to the mice at a level of 8×10^5 cells/mouse. As a positive control, KRN7000 was injected intravenously to the mice at a dose of 100 μg/kg on days 1, 5 and 9. On day 14, the liver was removed from each of the mice and weighed. Here, the liver from the mouse that had not been implanted with the tumor cells was about 1 g. Accordingly, the substantial tumor weight was determined by subtracting 1 g from the weight of the liver of the tumor-implanted mouse.

In experiment [7] the test system is Human Peripheral Blood-derived APCs. Description: Pharmacological Test 9: allogeneic MLR assay with human peripheral blood monocyte-derived APCs cultured 3 days. The experiment is classed as cell-based. The following applies: conclusion from Pharmacological Tests 9, 10 and 11; KRN7000 100 ng/mL. As for the experimental part:
A monocyte fraction was prepared from human peripheral blood mononuclear cells by Percol density-gradient centrifugation. The monocyte fraction was cultured in the presence or absence of GM-CSF (50 ng/mL) and IL-4 (100 ng/mL), and simultaneously either a vehicle (v; DMSO, 0.1%) or KRN7000 (KRN; 100 ng/mL) was added thereto. After culturing for 3 days, the cells were collected and washed with the medium 3 times to give V-APC, KRN-APC, V-APC-GM and KRN-APC-GM (where “GM” refers to the APCs cultured in the presence of GM-CSF and IL-4), which were then provided for use as APCs. As responder cells, human peripheral blood-derived FcR^− cells were used to perform allogeneic MLR assay.

Where [8] appears, read: KRN7000 100 μg/kg i.v. 3 times versus KRN-APC once.

`CCCCCCCCCCCCCCCCCCCCCCCCCC(=O)N[C@@H](CO[C@H]1O[C@H](CO)[C@H](O)[C@H](O)[C@H]1O)[C@H](O)[C@H](O)CCCCCCCCCCCCCC` [KRN7000, (2S,3S,4R)-1-(α-D-galactopyranosyloxy)-2-hexacosanoylamino-3,4-octadecanediol]: the survival period result in experiment [1] (EL-4 i.v. day 0, KRN7000 100 μg/kg i.v. on days 1, 5 and 9 (positive control)) is “remarkable increase in survival period”. Moreover, in experiment [1] (setting [8]), the “potency of the survival effect compared with one injection of KRN-APC” value is reported as “weaker than that when KRN-APC was injected only once”. The “enhancement of the functions of dendritic cell-rich APCs from murine spleen” value in experiment [2] is listed as “can enhance the functions of dendritic cell-rich APCs prepared from the murine spleen”. The “tumor growth-inhibitory effect (volume of the subcutaneous tumor)” value in experiment [3] was “tumor growth-inhibitory effect”. The “activating effect on APCs (antigen-presenting function enhancing effect)” value in experiment [4] was “has an activating effect on the APCs prepared from human peripheral blood”. In addition, the “activation of APCs derived from human umbilical cord blood” value in experiment [5] is listed as “can activate the APCs derived from human umbilical cord blood by various methods”. Moreover, the “tumor growth inhibitory effect compared with one injection of KRN-APC” value in experiment [6] (setting [8]) is given as “at the same level as that when KRN-APC was injected once”. For the same compound, the “inhibitory effect on tumor growth (liver weight on day 14)” value in experiment [6] (KRN7000 100 μg/kg i.v. on days 1, 5 and 9 (positive control)) is “remarkable inhibitory effect on tumor growth”. Besides, the “activation of APCs from human peripheral blood” value in experiment [7] is “can activate the APCs from human peripheral blood by various methods”.
